Assay results taken from PubChem BioAssay AID1963423 (Molecular Pharmacology Branch, DTP, NCI, 2024).

System: 439559-082-T-J2-PDC complex spheroid growth
Assay: Anticancer human tumor 439559-082-T-J2-PDC patient-derived colon adenocarcinoma cell line growth inhibition [Asc]
Details: for IC50: curve of first compound; for viability, T/C: stronger effect = lower value
How it was run: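 Tumor cells were grown as complex spheroids with human endothelial cells (HUVEC) and human mesenchymal stem cells as stroma. Agents were tested alone and in combination, in half-log steps down from the clinical Cmax, or from 10 microM where Cmax was unknown.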

[1] = second compound 0.03 µM, first compound 0.0316 µM
[2] = second compound 0.03 µM, first compound 0.1 µM
[3] = second compound 0.03 µM, first compound 0.316 µM
[4] = second compound 0.03 µM, first compound 1 µM
[5] = second compound 0.03 µM, first compound 3.16 µM
[6] = second compound 0.03 µM, first compound 10 µM
[7] = second compound 0.0949 µM, first compound 0.0316 µM
[8] = second compound 0.0949 µM, first compound 0.1 µM
[9] = second compound 0.0949 µM, first compound 0.316 µM
[10] = second compound 0.0949 µM, first compound 1 µM
[11] = second compound 0.0949 µM, first compound 3.16 µM
[12] = second compound 0.0949 µM, first compound 10 µM
[13] = second compound 0.3 µM, first compound 0.0316 µM
[14] = second compound 0.3 µM, first compound 0.1 µM
[15] = second compound 0.3 µM, first compound 0.316 µM
[16] = second compound 0.3 µM, first compound 1 µM
[17] = second compound 0.3 µM, first compound 3.16 µM
[18] = second compound 0.3 µM, first compound 10 µM
[19] = second compound 0.949 µM, first compound 0.0316 µM
[20] = second compound 0.949 µM, first compound 0.1 µM
[21] = second compound 0.949 µM, first compound 0.316 µM
[22] = second compound 0.949 µM, first compound 1 µM
[23] = second compound 0.949 µM, first compound 3.16 µM
[24] = second compound 0.949 µM, first compound 10 µM
[25] = second compound 3 µM, first compound 0.0316 µM
[26] = second compound 3 µM, first compound 0.1 µM
[27] = second compound 3 µM, first compound 0.316 µM
[28] = second compound 3 µM, first compound 1 µM
[29] = second compound 3 µM, first compound 3.16 µM
[30] = second compound 3 µM, first compound 10 µM
[31] = second compound 0.03 µM, first compound 0.00316 µM
[32] = second compound 0.03 µM, first compound 0.01 µM
[33] = second compound 0.0949 µM, first compound 0.00316 µM
[34] = second compound 0.0949 µM, first compound 0.01 µM
[35] = second compound 0.3 µM, first compound 0.00316 µM
[36] = second compound 0.3 µM, first compound 0.01 µM
[37] = second compound 0.949 µM, first compound 0.00316 µM
[38] = second compound 0.949 µM, first compound 0.01 µM
[39] = second compound 3 µM, first compound 0.00316 µM
[40] = second compound 3 µM, first compound 0.01 µM
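Further: spheroids exposed to agents for 7 days starting day 3 after seeding.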
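Wherever viability, T/C is given: percent of DMSO vehicle control viability with 100% = vehicle.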

| SMILES | IC50 (second compound 0.03 µM) [µM] | IC50 (second compound 0.0949 µM) [µM] | IC50 (second compound 0.3 µM) [µM] | IC50 (second compound 0.949 µM) [µM] | IC50 (second compound 3 µM) [µM] | viability, T/C [1] [%] | viability, T/C [2] [%] | viability, T/C [3] [%] | viability, T/C [4] [%] | viability, T/C [7] [%] | viability, T/C [8] [%] | viability, T/C [9] [%] | viability, T/C [10] [%] | viability, T/C [13] [%] | viability, T/C [14] [%] | viability, T/C [15] [%] | viability, T/C [16] [%] | viability, T/C [19] [%] | viability, T/C [20] [%] | viability, T/C [21] [%] | also measured |
| --- | --- | --- | --- | --- | --- | --- | --- | --- | --- | --- | --- | --- | --- | --- | --- | --- | --- | --- | --- | --- | --- |
| C=C(F)C(=O)N1CCN(c2nc(OCC3CCCN3C)nc3c2CCN(c2cccc4cccc(Cl)c24)C3)CC1CC#N (stereo not given) + CCN1C(C(=O)NC23CCC(C(=O)O)(CC2)CC3)C(c2cccc(Cl)c2F)C2(C(=O)Nc3cc(Cl)ccc32)C12CCCCC2 | 6.63 | 5.8 | 6.3 | 6.35 | 5.12 | 102 | 96.2 | 116 | 93 | 109 | 112 | 107 | 96.7 | 92 | 113 | 103 | 90.5 | 104 | 103 | 105 | viability, T/C [5]: 92.1%; viability, T/C [6]: 27%; viability, T/C [11]: 82.8%; viability, T/C [12]: 22.3%; viability, T/C [17]: 85%; viability, T/C [18]: 27.5%; viability, T/C [22]: 98.2%; viability, T/C [23]: 85.7%; viability, T/C [24]: 26.7%; viability, T/C [25]: 88.3%; viability, T/C [26]: 102%; viability, T/C [27]: 96.3%; viability, T/C [28]: 84.5%; viability, T/C [29]: 80.2%; viability, T/C [30]: 10.2% |
| C=CC(=O)N1CCN(c2nc(=O)n(-c3c(C)ccnc3C(C)C)c3nc(-c4c(O)cccc4F)c(F)cc23)C(C)C1 (stereo not given) + CCN1C(C(=O)NC23CCC(C(=O)O)(CC2)CC3)C(c2cccc(Cl)c2F)C2(C(=O)Nc3cc(Cl)ccc32)C12CCCCC2 | > 10 | > 10 | > 10 | > 10 | > 10 | 108 | 106 | 108 | 96.5 | 103 | 106 | 110 | 93.2 | 103 | 103 | 110 | 89.7 | 102 | 110 | 117 | viability, T/C [5]: 107%; viability, T/C [6]: 98.6%; viability, T/C [11]: 101%; viability, T/C [12]: 103%; viability, T/C [17]: 100%; viability, T/C [18]: 109%; viability, T/C [22]: 93.8%; viability, T/C [23]: 99%; viability, T/C [24]: 104%; viability, T/C [25]: 94.7%; viability, T/C [26]: 94.6%; viability, T/C [27]: 107%; viability, T/C [28]: 85.7%; viability, T/C [29]: 90%; viability, T/C [30]: 91.8% |
| CNC(C)C(=O)NC1CN(S(=O)(=O)c2cccc(S(=O)(=O)N3CCC4CCC(C(=O)NC(c5ccccc5)c5ccccc5)N4C(=O)C(NC(=O)C(C)NC)C3)c2)CCC2CCC(C(=O)NC(c3ccccc3)c3ccccc3)N2C1=O (stereo not given) + CCN1C(C(=O)NC23CCC(C(=O)O)(CC2)CC3)C(c2cccc(Cl)c2F)C2(C(=O)Nc3cc(Cl)ccc32)C12CCCCC2 | > 1 | > 1 | > 1 | > 1 | > 1 | 109 | 95.5 | 102 | 88 | 106 | 96.8 | 93 | 84.6 | 113 | 94.8 | 84.7 | 82.5 | 126 | 101 | 92.8 | viability, T/C [31]: 104%; viability, T/C [32]: 110%; viability, T/C [33]: 109%; viability, T/C [34]: 110%; viability, T/C [35]: 109%; viability, T/C [36]: 105%; viability, T/C [37]: 103%; viability, T/C [38]: 113%; viability, T/C [22]: 91.5%; viability, T/C [39]: 99.1%; viability, T/C [40]: 102%; viability, T/C [25]: 109%; viability, T/C [26]: 93.1%; viability, T/C [27]: 75%; viability, T/C [28]: 77.7% |
| COc1c(OCCCN2CCOCC2)ccc2c3n(c(=NC(=O)c4cnc(N)nc4)nc12)CCN3 + CCN1C(C(=O)NC23CCC(C(=O)O)(CC2)CC3)C(c2cccc(Cl)c2F)C2(C(=O)Nc3cc(Cl)ccc32)C12CCCCC2 | > 1 | > 1 | > 1 | > 1 | > 1 | 94.1 | 71.7 | 63.3 | 57.4 | 90.7 | 69 | 67.3 | 60.8 | 89.4 | 68.7 | 59.7 | 60.9 | 96.6 | 69.5 | 60.6 | viability, T/C [31]: 98.5%; viability, T/C [32]: 98.3%; viability, T/C [33]: 96.4%; viability, T/C [34]: 96.9%; viability, T/C [35]: 88.9%; viability, T/C [36]: 99.9%; viability, T/C [37]: 95.8%; viability, T/C [38]: 98.3%; viability, T/C [22]: 63.1%; viability, T/C [39]: 80.1%; viability, T/C [40]: 83.8%; viability, T/C [25]: 93.2%; viability, T/C [26]: 63%; viability, T/C [27]: 59%; viability, T/C [28]: 55.2% |
